Source: ChEMBL document CHEMBL5257018, “Novel Strategies for the Treatment of Pseudomonas aeruginosa Infections” (J Med Chem, 2016)
Values after ≈ are worked out from the molar mass of the structure shown. Numbered stars: 1 amine (or outer) side, 2 acyl side, 3 side chain; on linkers, the order of the positions; unused ones are H or OH. Bridge positions count the residues as written; N and C are the ends. Square brackets hold non-standard residues; d marks the D form. Side chains are listed from the residue outwards. Peptide text beside a SMILES is read from it. I, II: the chains in the order shown. X2 = COc1cccc2[nH]c(C)c(C[C@H](N[*:1])C(=O)[*:2])c12; dAla(ψthiazole) = C[C@@H](N[*:1])c1nc(C(=O)[*:2])cs1; Trp(4-OMe) = COc1cccc2[nH]cc(C[C@H](N)C(=O)O)c12; X3 = O=C(c1csc([C@@H](CO)N[*:1])n1)[*:2]; GlyΨ(Thz) = O=C(c1csc(CN[*:1])n1)[*:2]; dDab = NCC[C@@H](N)C(=O)O; Orn = NCCC[C@H](N)C(=O)O; dAbu = CC[C@@H](N)C(=O)O; Dab = NCC[C@H](N)C(=O)O; Dha = C=C(N)C(=O)O; Sar = CNCC(=O)O

Tested on: Pseudomonas aeruginosa
Experiment: Antimicrobial activity against Pseudomonas aeruginosa assessed as reduction in bacterial growth
Assay type: functional, organism-based

CC[C@H](C)[C@H](NC(=O)[C@H](CCCNC(=N)N)NC(=O)[C@H](CCCNC(=N)N)NC(=O)[C@H](Cc1ccccc1)NC(=O)[C@H](CC(C)C)NC(=O)[C@H](CCCNC(=N)N)NC(=O)[C@@H](N)CCCNC(=N)N)C(=O)N[C@@H](CC(C)C)C(=O)N[C@@H](CCCNC(=N)N)C(=O)N[C@@H](Cc1ccc(O)cc1)C(=O)N[C@@H](CC(C)C)C(=O)O (H-RRLFRRILRYL-OH)
MIC: 2.5 µM

COc1c(NC(=O)c2ccc(NC(=O)c3ccc(NC(=O)[C@H](CC#N)NC(=O)c4ccc(NC(=O)/C(C)=C/c5ccc(O)cc5)cc4)cc3)c(OC)c2O)ccc(C(=O)O)c1O
MIC: 1 µg/mL

C[C@@H](N)C(=O)N[C@H](CCCCN)C(=O)N[C@H](CCCNC(=N)N)C(=O)N[C@H](Cc1c[nH]cn1)C(=O)N[C@H](Cc1c[nH]cn1)C(=O)NCC(=O)N[C@H](Cc1ccc(O)cc1)C(=O)N[C@H](CCCCN)C(=O)N[C@H](CCCNC(=N)N)C(=O)N[C@H](CCCCN)C(=O)N[C@H](Cc1ccccc1)C(=O)N[C@H](Cc1c[nH]cn1)C(N)=O (H-[dA][dK][dR][dH][dH]G[dY][dK][dR][dK][dF][dH]-NH2)
MIC: 2 µM

C=C1NC(=O)[C@@H](CC)NC(=O)CNC(=O)[C@H](Cc2c[nH]c3cccc(OC)c23)NC(=O)[C@H](Cc2c[nH]c3ccccc23)NC(=O)c2csc(n2)[C@@H](C)NC(=O)CN(C)C1=O (cyclo([Dha][Sar][dAla(ψthiazole)]W[Trp(4-OMe)]G[dAbu]))
IC50: 0.08 µg/mL (≈ 0.0954 µM)

CC(C)C[C@H](NC(=O)[C@H](CCCCN)NC(=O)[C@H](CCCCNC(=O)[C@H](CC(C)C)NC(=O)[C@H](CCCCN)NC(=O)[C@H](CCCCNC(=O)[C@H](CC(C)C)NC(=O)[C@H](CCCCN)NC(=O)[C@H](CCCCNC(=O)[C@H](CC(C)C)NC(=O)[C@@H](N)CCCCN)NC(=O)[C@H](CC(C)C)NC(=O)[C@@H](N)CCCCN)NC(=O)[C@H](CC(C)C)NC(=O)[C@H](CCCCN)NC(=O)[C@H](CCCCNC(=O)[C@H](CC(C)C)NC(=O)[C@@H](N)CCCCN)NC(=O)[C@H](CC(C)C)NC(=O)[C@@H](N)CCCCN)NC(=O)[C@H](CC(C)C)NC(=O)[C@H](CCCCN)NC(=O)[C@H](CCCCNC(=O)[C@H](CC(C)C)NC(=O)[C@H](CCCCN)NC(=O)[C@H](CCCCNC(=O)[C@H](CC(C)C)NC(=O)[C@@H](N)CCCCN)NC(=O)[C@H](CC(C)C)NC(=O)[C@@H](N)CCCCN)NC(=O)[C@H](CC(C)C)NC(=O)[C@H](CCCCN)NC(=O)[C@H](CCCCNC(=O)[C@H](CC(C)C)NC(=O)[C@@H](N)CCCCN)NC(=O)[C@H](CC(C)C)NC(=O)[C@@H](N)CCCCN)C(N)=O (I: H-KLK([Leu-Lys])KLKKLKKL-NH2 / II: H-KLK([Leu-Lys])KLKKL / III: H-KLK([Leu-Lys])KL / IV: H-KLK([Leu-Lys])KL; amide I:6-IV:C, I:9-II:C, II:6-III:C)
MIC: 0.4 µM

CC[C@H](C)[C@@H]1NC(=O)[C@H](Cc2c[nH]c3ccccc23)NC(=O)[C@H]([C@@H](C)O)NC(=O)[C@@H]2CCCN2C(=O)[C@H]2CCCN2C(=O)[C@H](CO)NC(=O)[C@H](C)NC(=O)[C@H](CCN)NC(=O)[C@H](CCN)NC(=O)[C@H](Cc2c[nH]c3ccccc23)NC(=O)[C@H](CCN)NC(=O)[C@@H](CCN)NC(=O)[C@H](CCCN)NC(=O)[C@H](CCN)NC1=O [MUREPAVADIN] (cyclo(TWI[Dab][Orn][dDab][Dab]W[Dab][Dab]AS[dP]P))
MIC50: 10 µg/mL (≈ 6.44 µM)

CCCCCCCCCCCCCB(O)O
MIC: 1 µM

C=C1NC(=O)[C@@H](C)NC(=O)CNC(=O)[C@H](Cc2c(C)[nH]c3cccc(OC)c23)NC(=O)[C@H](Cc2c[nH]c3ccccc23)NC(=O)c2csc(n2)[C@@H](C)NC(=O)CN(C)C1=O (cyclo(W[X2]G[dA][Dha][Sar][dAla(ψthiazole)]))
IC50: 0.1 µg/mL (≈ 0.119 µM)

CN(C)c1cc(NC(=O)CNC(C)(C)C)c(O)c2c1C[C@H]1C[C@H]3[C@H](N(C)C)C(O)=C(C(N)=O)C(=O)[C@@]3(O)C(O)=C1C2=O [TIGECYCLINE]
MIC90: 16 µg/mL (≈ 27.3 µM)

C=C1NC(=O)[C@@H](CC)NC(=O)CNC(=O)[C@H](Cc2c(C)[nH]c3cccc(OC)c23)NC(=O)[C@H](Cc2c[nH]c3ccccc23)NC(=O)c2csc(n2)[C@@H](C)NC(=O)CN(C)C1=O (cyclo(W[X2]G[dAbu][Dha][Sar][dAla(ψthiazole)]))
IC50: 0.14 µg/mL (≈ 0.164 µM)

C=C1NC(=O)[C@@H](C)NC(=O)CNC(=O)[C@H](Cc2c[nH]c3cccc(OC)c23)NC(=O)[C@H](Cc2c[nH]c3ccccc23)NC(=O)c2csc(n2)CNC(=O)CN(C)C1=O (cyclo([Dha][Sar][GlyΨ(Thz)]W[Trp(4-OMe)]G[dA]))
IC50: 0.8 µg/mL (≈ 0.987 µM)

C=C1NC(=O)[C@@H](C)NC(=O)CNC(=O)[C@H](Cc2c[nH]c3cccc(OC)c23)NC(=O)[C@H](Cc2c[nH]c3ccccc23)NC(=O)c2csc(n2)[C@@H](CO)NC(=O)CN(C)C1=O (cyclo([Dha][Sar][X3]W[Trp(4-OMe)]G[dA]))
IC50: 5 µg/mL (≈ 5.95 µM)

C=C1NC(=O)[C@@H](C)NC(=O)CNC(=O)[C@H](Cc2c[nH]c3cccc(OC)c23)NC(=O)[C@H](Cc2c[nH]c3ccccc23)NC(=O)c2csc(n2)[C@@H](C)NC(=O)CN(C)C1=O (cyclo(W[Trp(4-OMe)]G[dA][Dha][Sar][dAla(ψthiazole)]))
IC50: 0.12 µg/mL (≈ 0.145 µM)

C=C1NC(=O)[C@@H](CC)NC(=O)CNC(=O)[C@H](Cc2c[nH]c3cccc(OC)c23)NC(=O)[C@H](Cc2c[nH]c3ccccc23)NC(=O)c2csc(n2)[C@@H](CO)NC(=O)CN(C)C1=O (cyclo([Dha][Sar][X3]W[Trp(4-OMe)]G[dAbu]))
IC50: 4 µg/mL (≈ 4.68 µM)

CC(C)[C@H](NC(=O)[C@H](Cc1c[nH]c2ccccc12)NC(=O)[C@H](CCCNC(=N)N)NC(=O)[C@H](CCCNC(=N)N)NC(=O)[C@@H](NC(=O)[C@@H](NC(=O)[C@H](CCCNC(=N)N)NC(=O)[C@@H](NC(=O)[C@@H](NC(=O)[C@H](CCCNC(=N)N)NC(=O)[C@H](CCCNC(=N)N)NC(=O)[C@@H](NC(=O)[C@H](Cc1c[nH]c2ccccc12)NC(=O)[C@H](CCCNC(=N)N)NC(=O)[C@H](CCCNC(=N)N)NC(=O)[C@@H](NC(=O)[C@H](CCCNC(=N)N)NC(=O)[C@H](CCCNC(=N)N)NC(=O)[C@@H](NC(=O)[C@H](Cc1c[nH]c2ccccc12)NC(=O)[C@H](CCCNC(=N)N)NC(=O)[C@@H](N)CCCNC(=N)N)C(C)C)C(C)C)C(C)C)C(C)C)C(C)C)C(C)C)C(C)C)C(=O)N[C@@H](CCCNC(=N)N)C(=O)N[C@@H](CCCNC(=N)N)C(=O)O (H-RRWVRRVRRWVRRVVRVVRRWVRR-OH)
MIC: 0.4 µM

C=C1NC(=O)[C@@H](C)NC(=O)CNC(=O)[C@H](Cc2c[nH]c3ccccc23)NC(=O)[C@H](Cc2c[nH]c3ccccc23)NC(=O)c2csc(n2)[C@@H](C)NC(=O)CN(C)C1=O
IC50: 1.4 µg/mL (≈ 1.76 µM)

Cc1ccc2c(C)c3c(c(O)c2c1O)C(=O)[C@]1(O)C(=O)C(C(N)=O)=C(O)[C@H](N)[C@@H]1C3
MIC: 32 µg/mL
